This note sets out measurements from patent publication US8859818B2, “Electrophotographic photoreceptor” (Takasago International Corporation, priority 2010, dated 2014).

The nature of series [1]: solubility in tetrahydrofuran. Format: physicochemical. The following applies: 25° C., weight dissolved completely in 1 g tetrahydrofuran. Here is the method: Each of the Exemplified Compounds (1-1) and (1-2) was dissolved in 1 g of tetrahydrofuran at 25° C.
Experiments were conducted by using Comparative Compounds (3) to (5) in the same manner as in Example 8.

The nature of series [2]: dissolution in binder polymer solution for film formation. Format: physicochemical. The protocol: Into 85 parts by weight of tetrahydrofuran, 15 parts by weight of “Panlite TS-2020” (manufactured by Teijin Chemicals Ltd.) and 15 parts by weight of Compound (1-1) were dissolved by mixing. The solution was applied by using a doctor blade onto a sheet in which aluminum was vapor deposited on a polyethylene […] (PET) film, followed by drying at 80° C. for 3 hours. Thus, a charge transport layer was formed (thickness: 18 μm). Further, a translucent gold electrode was vapor deposited on this charge transport layer, and the charge carrier mobility was measured. For the measurement of the carrier mobility, a nitrogen gas laser having a pulse half width of […] and a wavelength of 337 nm was used as a light source, and the time-of-flight method (Toshiaki Tanaka, Yasuhiro Yamaguchi and Masaaki Yokoyama, Denshi Shashin (Electrophotography), 29, 366 (1990)) was employed. Table 1 and FIG. 1 show the results measured at 25° C. and 25 V/μm.
Experiments were conducted by using Comparative Compounds (1) to (6) in the same manner as in Example 1. […] Note that it was impossible to measure the mobility of Comparative Compounds (3) to (5) because of their insolubility.
Into 8 parts by weight of tetrahydrofuran, 1 part by weight of a polycarbonate “Z-200” (manufactured by Mitsubishi Engineering-Plastics Corporation) and 1 part by weight of Compound (1-1) or (1-2) were dissolved by mixing. The liquid was applied onto the charge generation layer, followed by drying at 80° C. for 2 hours, to thereby form a charge transport layer (thickness: approximately 20 μm). Thus, each electrophotographic photoreceptor was prepared.
Experiments were conducted by using Comparative Compounds (2) to (6) in the same manner as in Example 4. […] Note that it was impossible to measure the electrophotographic characteristics of Comparative Compounds (3) to (5) because of their insolubility.
Into 85 parts by weight of tetrahydrofuran, 15 parts by weight of “Panlite TS-2020” and 15 parts by weight of Compound (1-1) or (1-2) were dissolved by mixing. This liquid was applied onto a PET plate by using a doctor blade, followed by drying at 80° C. for 3 hours. Thus, a thin film was prepared (thickness: approximately 20 μm).
Experiments were conducted by using Comparative Compounds (3) to (5) in the same manner as in Example 6. […] Note that it was impossible to perform measurement of Comparative Compounds (3) to (5) because of their insolubility.

The mark [3] stands for this setting: 1 part polycarbonate Z-200, 1 part compound, 8 parts tetrahydrofuran.
Setting [4] is: 15 parts Panlite TS-2020, 15 parts compound, 85 parts tetrahydrofuran.

In series [1], `Cc1ccc(/C=C/c2ccc(N(c3ccc(/C=C/c4ccc(C)cc4)cc3)c3ccc(/C=C/c4ccc(C)cc4)cc3)cc2)cc1` [Comparative Compound (3)] had a Solubility of 0.08 g/g tetrahydrofuran. Also, the “dissolution in binder polymer solution” value in series [2] (setting [3]) and in series [2] (setting [4]) was “not successfully dissolved” each time.

With `Cc1ccccc1/C=C/c1ccc(N(c2ccc(/C=C/c3ccccc3C)cc2)c2ccc(/C=C/c3ccccc3C)cc2)cc1` [Comparative Compound (4)], the Solubility in series [1] was determined as 0.02 g/g tetrahydrofuran. The “dissolution in binder polymer solution” value in series [2] (setting [3]) and in series [2] (setting [4]) was “not successfully dissolved” in each case.

The molecule `Cc1cccc(C=Cc2ccc(N(c3ccc(C=Cc4cccc(C)c4)cc3)c3ccc(C=Cc4cccc(C)c4)cc3)cc2)c1` [Compound (1-1)] yielded a melting point of 98 to 99 °C. The same molecule gave a Solubility in series [1] of 0.40 g/g tetrahydrofuran.

Take `COc1ccc(/C=C/c2ccc(N(c3ccc(/C=C/c4ccc(OC)cc4)cc3)c3ccc(/C=C/c4ccc(OC)cc4)cc3)cc2)cc1` [Comparative Compound (5)]: the Solubility in series [1] is recorded as 0.10 g/g tetrahydrofuran. Moreover, the “dissolution in binder polymer solution” value in series [2] (setting [3]) and in series [2] (setting [4]) was “not successfully dissolved” throughout.

On to `COc1cccc(C=Cc2ccc(N(c3ccc(C=Cc4cccc(OC)c4)cc3)c3ccc(C=Cc4cccc(OC)c4)cc3)cc2)c1` [Compound (1-2)], for which the melting point fell in the range of 145 to 146 °C. In series [1], this molecule had a Solubility of 0.45 g/g tetrahydrofuran.
